In patent publication US8003645B2, “Preventives or remedies for Alzheimer's disease, or amyloid protein fibril-formation inhibitors, which include a nitrogen-containing heteroaryl compound” (BTG International Ltd., priority 2001, dated 2011):
Read-outs that look alike come from different tables or passages of the source. Values belong to the molecule of their own block, whether it stands above or below them.

How the values were obtained:
[1] = tested on: HeLa cells; assay: Action in inhibiting the lowering of MTT reduction capacity by Aβ1-40; type: cell-based
Description: The HeLa cells employed were purchased from the Dainippon Pharmaceutical Co.
The HeLa cells were seeded by suspension in MEM (Minimum essential medium; produced by the Sigma Chemical Co.) containing 10% inactivated FBS (foetal bovine serum) such that there were 1,000 per well in a 96-well microplate, and then culturing was carried out overnight in an incubator at 37° C. in the presence of 5% CO2.
The test compound was dissolved in dimethyl sulphoxide (DMSO) and diluted with the MEM medium so that the final concentration of DMSO was no more than 0.1 wt %, and added to the cells seeded the previous day. […] Overnight culturing was carried out using an incubator at 37° C. in the presence of 5% CO2, with 100 μL/well of MEM medium containing 5% deactivated FBS.
Now, prior to use, the Aβ1-40 had been dissolved in buffer and left overnight so that the amyloid coagulated.
In order to determine the percentage inhibition of the test compound, cells alone, cells where Aβ1-40 had been added, and cells where only the test compound had been added, were also incubated overnight under the same conditions.
The following day, there was added 10 μL/well of MTT [3-(4,5-dimethylthiazol-2-yl)-2,5-diphenyltetrazolium bromide: produced by Wako Pure Chemical Industries] prepared at a concentration of 5 mg/mL with phosphate buffered saline (PBS), and incubation carried out for 2 hours at 37° C. in the presence of 5% CO2. The medium was then eliminated and the formazan dye produced measured […] (A570 nm-A650 nm) using a Microplate Reader (produced by the Molecular Devices Co.), by dissolving with the addition of 100 μL per well of isopropanol. In this way, the change in the MTT reduction capacity of the HeLa cells was measured.
The percentage inhibition (%) by the test compound was determined from the following formula. inhibition (%) [[…]/(a−c)]×100 where • a=MTT reduction capacity when untreated • b=MTT reduction capacity when Aβ1-40 and the test compound are added • c=MTT reduction capacity when only Aβ1-40 is added

[2] = tested on: acute sections from the hippocampus; assay: Suppression of Aβ1-42-induced long-term potentiation impairment (fEPSP slope) in acute hippocampal sections; type: cell-based, Wistar rats; settings: for effect of compound on its own on LTP (result in words): compound alone; for impairment of the LTP due to Aβ1-42 (result in words): pretreating 5 hours with Aβ1-42 together with the compound
Description: The method for testing the suppression of the impairment of long-term potentiation was based on that described in J. Neurosci. Vol. 20, 2003-10 (2000). That is to say, acute^i sections of thickness 400 μm were prepared from the hippocampus of the brains of 3-4 week old male Wistar rats. These acute sections were immersed in artificial cerebrospinal fluid in which β-amyloid protein (Aβ1-42: produced by the Sigma Chemical Co.) and compound from Production Examples 1 or 12 had been dissolved, and pretreatment carried out for 5 hours.
In the measurement using the compound from Production Example 1, the concentration of the Aβ1-42 in the artificial cerebrospinal fluid was 500 nM and the concentration of the compound from Production Example 1 was 1 μg/mL. In the measurement using the compound from Production Example 12, the concentration of the Aβ1-42 in the artificial cerebrospinal fluid was 1 μM and the concentration of the compound from Production Example 12 was 3 μg/mL. Now, the Aβ1-42 was used after coagulation of the amyloid by leaving overnight.
100 pulses of high frequency stimulation at 100 Hz were applied to the pretreated acute sections, and the field excitatory postsynaptic potential: fEPSP) measured by an extracellular recording method.
The fEPSP was measured at 30 second intervals following application of the high frequency stimulation and the fEPSP slope (units [%]) measured. The average values of the slope over 0-20 minutes, 20-40 minutes and 40-60 minutes were determined. This test was repeated five times over. In the table, the figures are the average values ±standard deviation for the five averages obtained in the five tests. […] “Aβ” denotes the Aβ1-42.
As controls, measurements were made of the fEPSP [mV] under the same conditions for acute sections pretreated with the artificial cerebrospinal fluid alone, acute sections pretreated with the artificial cerebrospinal fluid in which Aβ1-42 had been dissolved, and acute sections pretreated with artificial cerebrospinal fluid in which only the compound from Production Example 1 or 12 had been dissolved, and then the average value of the fEPSP slope [%] obtained.

[3] = target: Aβ1-42 (Homo sapiens, UniProt P05067); assay: Aβ fibril-formation inhibiting action, thioflavin binding assay; type: biochemical; settings: for activity at 100 µg/mL: Aβ1-42 25 μM + compound 100 μg/mL, incubation 2 days at 37° C., Aβ1-42 alone taken as 100, read-out: fibril-formation inhibiting action (fluorescent intensity %); for Aβ fibril-formation (result in words): compound added prior to fibril formation, thioflavin fluorescence
Description: (§1) The Aβ fibril-formation inhibiting action and fibrillar Aβ breakdown action were evaluated using the thioflavin binding assay method. The details of the test method are based on the method described in J. Biol. Chem. Vol. 274, 25945-25952 (1999).
In the measurement of the inhibition of Aβ fibril-formation, the concentration of the Aβ1-42 was 25 μM and the concentration of the compound synthesized in Production Example 4 or Production Example 12 was 100 μg/mL in each case. The measurement of the Aβ fibril-formation inhibiting action was carried out following incubation for 2 days at 37° C. of the Aβ1-42 alone and of the Aβ1-42 to which the compound synthesized in Production Example 4 or Production Example 12 had been added.
(§2) The measurements of the Aβ fibril-formation inhibiting action and of the fibrillar Aβ breakdown action were carried out by placing a 100 μL sample obtained by pretreatment as described above, plus 800 μL of distilled water, 1 mL of glycine (100 mM) and 50 μL of thioflavin (100 μM) in a cuvette, and measuring the fluorescence at an excitation wavelength of 435 nm and a fluorescence wavelength of 490 nm.
(§3) The figures in the table show the calculated percentages taking the fluorescent intensity obtained when the fluorescence of the sample obtained by incubating Aβ1-42 (25 μM) alone by the above method, and measured at an excitation wavelength of 435 nm and a fluorescence wavelength of 490 nm, was taken as 100. The figures are in the form of the average value ±standard deviation, for the three to nine averages obtained in three to nine tests. […] “Aβ” is for the Aβ1-42.

[4] = target: fibrillar Aβ1-42 (Homo sapiens, UniProt P05067); assay: Fibrillar Aβ breakdown action, thioflavin binding assay; type: biochemical; settings: for fibrillar breakdown action (fluorescent intensity %): Aβ1-42 25 μM incubated 2 or 3 days at 37° C., then compound 100 μg/mL, further 2 days, Aβ1-42 alone taken as 100; for fibrillar Aβ breakdown action (result in words): compound added after fibril formation, thioflavin fluorescence
Description: as §1
In the measurement of the fibrillar Aβ breakdown action, the concentration of the Aβ1-42 was 25 μM and the concentration of the compound synthesized in Production Example 4 or Production Example 12 was 100 μg/mL in each case. After incubating the Aβ1-42 for 2 days or 3 days at 37° C., the compound synthesized in Production Example 4 or Production Example 12 was or was not added, and then further incubation performed for 2 days, after which measurement of the fibrillar Aβ breakdown action was performed.
as §2, §3

[5] = Table 8, Aβ (1 μM) + compound 1 μg/mL
[6] = Table 8, compound alone 1 μg/mL, no Aβ
[7] = Homo sapiens, HeLa cells, Aβ1-40 (100 nM), read-out: IC50 (action in inhibiting the lowering of the MTT reduction capacity by Aβ1-40)
[8] = Test 1, Aβ1-42 (500 nM) + compound 1 μg/mL
[9] = Test 1, compound alone 1 μg/mL, no Aβ
[10] = Test 2, Aβ1-42 (1 μM) + compound 3 μg/mL
[11] = Test 2, compound alone 3 μg/mL, no Aβ

Chain of fibrillar Aβ1-42 (P05067 672-713): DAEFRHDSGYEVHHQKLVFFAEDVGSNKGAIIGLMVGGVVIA
Chain of Aβ1-42 (P05067 672-713): as above

SMILES: CC1(C)CC(C)(c2ccc(O)cc2O)c2ccc(O)cc2O1 (centres unmarked) [Compound A, 4-(7-hydroxy-2,4,4-trimethyl-chroman-4-yl)benzene-1,3-diol, reference compound]
IC50 ([1]; same method as Table 6, HeLa cells, Aβ1-40, read-out: 50% inhibitory concentration (IC50), action in suppressing the lowering of MTT function): 12 µM
Value of fEPSP Slope [%] 0-20 minutes [2, 5]: 159.5 ± 6.6%
Value of fEPSP Slope [%] 20-40 minutes [2, 5]: 142.8 ± 5.4%
Value of fEPSP Slope [%] 40-60 minutes [2, 5]: 137.3 ± 4.5%
Value of fEPSP Slope [%] 0-20 minutes [2, 6]: 168.6 ± 13.0%
Value of fEPSP Slope [%] 20-40 minutes [2, 6]: 146.6 ± 15.9%
Value of fEPSP Slope [%] 40-60 minutes [2, 6]: 149.7 ± 16.1%

SMILES: CCc1nc(Nc2cccc(O)c2)cc(Nc2cccc(O)c2)n1 [Production Example 2, 2-Ethyl-N,N′-bis(3-hydroxyphenyl)pyrimidine-4,6-diamine]
IC50 [1, 7]: 1.9 µM

SMILES: Oc1cccc(Nc2cc(Nc3cccc(O)c3)ncn2)c1 [Production Example 5, N,N′-bis(3-hydroxyphenyl)pyrimidine-4,6-diamine]
IC50 [1, 7]: 9.6 µM

SMILES: Oc1cccc(Nc2ccnc(Nc3cccc(O)c3)n2)c1 [Production Example 6, N,N′-bis(3-hydroxyphenyl)pyrimidine-2,4-diamine]
IC50 [1, 7]: 6.7 µM

SMILES: Nc1nc(Nc2cccc(O)c2)cc(Nc2cccc(O)c2)n1 [Production Example 13, 2-Amino-N,N′-bis(3-hydroxyphenyl)pyrimidine-4,6-diamine]
IC50 [1, 7]: 5.5 µM

SMILES: O=[N+]([O-])c1c(Nc2cccc(O)c2)ncnc1Nc1cccc(O)c1 [Production Example 18, N,N′-bis(3-hydroxyphenyl)-5-nitropyrimidine-4,6-diamine]
IC50 [1, 7]: 3.8 µM

SMILES: CC(C)(C)c1nc(Nc2cccc(O)c2)nc(Nc2cccc(O)c2)n1 [Production Example 33, 6-t-Butyl-N,N′-bis(3-hydroxyphenyl)-1,3,5-triazine-2,4-diamine]
IC50 [1, 7]: 2.2 µM

Now from value to molecule, other results behind:

IC50 [1, 7]: 3.5 µM
SMILES: CCc1nc(Nc2cccc(O)c2)nc(Nc2cccc(O)c2)n1 [Production Example 1, 6-Ethyl-N,N′-bis(3-hydroxyphenyl)-1,3,5-triazine-2,4-diamine]
Value of fEPSP Slope [%] 0-20 minutes [2, 8]: 150.0 ± 8.4%
Value of fEPSP Slope [%] 20-40 minutes [2, 8]: 149.6 ± 6.9%
Value of fEPSP Slope [%] 40-60 minutes [2, 8]: 151.2 ± 7.5%
Value of fEPSP Slope [%] 0-20 minutes [2, 9]: 155.3 ± 3.4%
Value of fEPSP Slope [%] 20-40 minutes [2, 9]: 156.5 ± 3.9%
Value of fEPSP Slope [%] 40-60 minutes [2, 9]: 155.8 ± 5.0%
effect of compound on its own on LTP (result in words) ([2]; no Aβ): inactive on its own
impairment of the LTP due to Aβ1-42 (result in words) [2]: suppressed

IC50 [1, 7]: 6 µM
activity at 100 µg/mL [3]: 16.3 ± 5.3%
Aβ fibril-formation (result in words) [3]: Aβ fibril-formation was inhibited
fibrillar breakdown action (fluorescent intensity %) [4]: 30.63 ± 1.26%
SMILES: Cc1nc(Nc2cccc(O)c2)cc(Nc2cccc(O)c2)n1 [Production Example 4, 2-Methyl-N,N′-bis(3-hydroxyphenyl)pyrimidine-4,6-diamine]
fibrillar Aβ breakdown action (result in words) [4]: there was a fibrillar Aβ breakdown action

IC50 [1, 7]: 5.5 µM
SMILES: CCCCc1nc(Nc2cccc(O)c2)cc(Nc2cccc(O)c2)n1 [Production Example 8, 2-Butyl-N,N′-bis(3-hydroxyphenyl)pyrimidine-4,6-diamine]

IC50 [1, 7]: 2.4 µM
SMILES: CCCc1nc(Nc2cccc(O)c2)cc(Nc2cccc(O)c2)n1 [Production Example 9, 2-Propyl-N,N′-bis(3-hydroxyphenyl)pyrimidine-4,6-diamine]

IC50 [1, 7]: 4.2 µM
SMILES: CCCc1nc(Nc2cccc(O)c2)nc(Nc2cccc(O)c2)n1 [Production Example 10, N,N′-bis(3-hydroxyphenyl)-6-propyl-1,3,5-triazine-2,4-diamine]

activity at 100 µg/mL [3]: 1.69 ± 1.32%
Aβ fibril-formation (result in words) [3]: Aβ fibril-formation was inhibited
fibrillar breakdown action (fluorescent intensity %) [4]: 28.49 ± 5.17%
SMILES: Oc1cccc(Nc2ccc(Nc3cccc(O)c3)nn2)c1 [Production Example 12, N,N′-bis(3-hydroxyphenyl)pyridazine-3,6-diamine]
Value of fEPSP Slope [%] 0-20 minutes [2, 10]: 161.7 ± 2.6%
Value of fEPSP Slope [%] 20-40 minutes [2, 10]: 148.1 ± 3.1%
Value of fEPSP Slope [%] 40-60 minutes [2, 10]: 146.2 ± 4.6%
Value of fEPSP Slope [%] 0-20 minutes [2, 11]: 175.3 ± 7.4%
Value of fEPSP Slope [%] 20-40 minutes [2, 11]: 162.9 ± 9.8%
Value of fEPSP Slope [%] 40-60 minutes [2, 11]: 160.8 ± 10.3%
effect of compound on its own on LTP (result in words) ([2]; no Aβ): inactive on its own
impairment of the LTP due to Aβ1-42 (result in words) [2]: suppressed
fibrillar Aβ breakdown action (result in words) [4]: there was a fibrillar Aβ breakdown action

IC50 [1, 7]: 2.4 µM
SMILES: Cc1nc(Nc2cccc(O)c2)nc(Nc2cccc(O)c2)n1 [Production Example 27, N,N′-bis(3-hydroxyphenyl)-6-methyl-1,3,5-triazine-2,4-diamine]

IC50 [1, 7]: 4.1 µM
SMILES: CCC(C)c1nc(Nc2cccc(O)c2)nc(Nc2cccc(O)c2)n1 (centres unmarked) [Production Example 34, 6-s-Butyl-N,N′-bis(3-hydroxyphenyl)-1,3,5-triazine-2,4-diamine]
